The assay has as its target Xanthine dehydrogenase/oxidase (Homo sapiens, UniProt P47989). Briefly: xanthine oxidase activity: Xanthine oxidase inhibition was determined using a standard fluorescence-based assay for xanthine oxidase activity (McHale A, Grimes H, Coughlan M P: Int J Biochem. 10:317-9, 1979) with minor variations. […] Experiments on test compounds were performed in triplicate in multi-well plates using 10 concentrations of each compound that ranged over a 3-fold dilution.

Xanthine dehydrogenase/oxidase, sequence (P47989 whole entry): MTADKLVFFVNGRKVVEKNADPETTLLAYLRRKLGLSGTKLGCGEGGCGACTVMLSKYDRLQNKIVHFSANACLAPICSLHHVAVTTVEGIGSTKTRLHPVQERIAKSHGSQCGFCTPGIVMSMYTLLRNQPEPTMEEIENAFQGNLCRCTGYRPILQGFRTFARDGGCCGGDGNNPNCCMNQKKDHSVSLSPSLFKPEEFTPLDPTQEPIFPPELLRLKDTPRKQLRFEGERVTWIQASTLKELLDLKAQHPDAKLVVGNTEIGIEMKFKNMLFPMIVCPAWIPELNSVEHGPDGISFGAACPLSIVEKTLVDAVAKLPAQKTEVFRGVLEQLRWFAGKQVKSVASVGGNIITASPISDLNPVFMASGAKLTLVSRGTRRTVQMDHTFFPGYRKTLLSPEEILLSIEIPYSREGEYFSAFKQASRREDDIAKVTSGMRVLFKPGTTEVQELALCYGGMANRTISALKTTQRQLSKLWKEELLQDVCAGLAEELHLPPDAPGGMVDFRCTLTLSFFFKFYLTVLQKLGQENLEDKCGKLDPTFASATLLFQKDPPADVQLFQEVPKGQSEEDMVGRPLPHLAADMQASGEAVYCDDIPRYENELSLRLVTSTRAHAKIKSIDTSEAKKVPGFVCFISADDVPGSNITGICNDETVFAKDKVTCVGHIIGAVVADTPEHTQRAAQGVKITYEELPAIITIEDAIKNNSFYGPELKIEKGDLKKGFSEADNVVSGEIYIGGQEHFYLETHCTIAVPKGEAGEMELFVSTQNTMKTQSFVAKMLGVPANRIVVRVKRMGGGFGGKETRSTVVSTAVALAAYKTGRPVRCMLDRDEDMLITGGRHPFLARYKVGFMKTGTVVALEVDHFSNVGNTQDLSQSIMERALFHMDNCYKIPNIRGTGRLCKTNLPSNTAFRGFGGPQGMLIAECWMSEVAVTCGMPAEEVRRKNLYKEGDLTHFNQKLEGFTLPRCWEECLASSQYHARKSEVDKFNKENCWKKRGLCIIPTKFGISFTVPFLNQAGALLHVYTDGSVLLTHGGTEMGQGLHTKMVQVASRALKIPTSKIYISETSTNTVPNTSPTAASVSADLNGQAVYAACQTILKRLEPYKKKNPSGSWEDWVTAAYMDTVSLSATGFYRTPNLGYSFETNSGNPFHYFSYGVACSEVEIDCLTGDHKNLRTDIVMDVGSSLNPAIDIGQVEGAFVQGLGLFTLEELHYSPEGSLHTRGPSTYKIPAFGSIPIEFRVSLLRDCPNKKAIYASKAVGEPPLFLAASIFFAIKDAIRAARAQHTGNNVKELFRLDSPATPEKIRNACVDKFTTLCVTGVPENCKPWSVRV

On to `O=C(O)CSc1nnc(Br)n1-c1ccc(C2CC2)c2ccccc12`, for which the IC50 – broadly, the concentration that gives 50% inhibition – was more than 300 µM.

These data come from ChEMBL document CHEMBL5727898, “Compounds and their use for reducing uric acid levels” (2020).
